# Assay results from patent US12319652B2, “Salts and solid forms of (R)-1-(5-methoxy-1H-indol-1-yl)-N,N-dimethylpropan-2-amine” (priority 2021, dated 2025).
# Experiment: Solubility determinations in SIF buffers (FaSSIF, FeSSIF, FaSSGF)
# Format: physicochemical
# Settings: for XRPD (dried) / XRPD (wet): solid residue
# Method: At this stage ca. 1 g of each front-runner salt form was prepared. Salt forms that offered significant solubility and stability advantages over the non-ionized API were prioritized. […] Scale Up
# The solubility of the salts below was determined in FaSSIF, FeSSIF and FaSSGF by reference to the calibration curve of amorphous compound 1.
# Separate portions of compound 1 were weighed out into aluminum boats and were charged to the relevant volumetric flasks. Solutions were made to volume with 1 to 1 (v/v) acetonitrile/purified water to give calibrants of known API concentrations and analyzed by HPLC, suitable to determine the concentration of compound 1 free base in the SIF buffer solubility study.
# Each sample (150 mg) was suspended in the relevant SIF buffer (5.0 ml), to give a concentration of 30 mg/ml and maintain at 37° C. for 24 h. The pH was adjusted using 1 M HCl or 1 M NaOH, to ensure that the suspension remains in range.
# Sample (1 ml) of the well-stirred representative suspensions was obtained at 1 h, 3 h, 6 h and 24 h and the pH was recorded. The pH of the bulk suspension was re-adjusted when necessary. The obtained sample from each vial was centrifuged, and the supernatant was analysed by HPLC (note, the analyte was diluted, when outside of the calibration range); XRPD analysis was performed on the wet sample pellet for evidence of form change, as well as on the oven-dried pellet (undervacuum at 40° C.).
# [1] = FaSSGF (ph 1.6), t = 1 h@37° C.
# [2] = FaSSGF (ph 1.6), t = 3 h@37° C.
# [3] = FaSSGF (ph 1.6), t = 6 h@37° C.
# [4] = FaSSGF (ph 1.6), t = 24 h @37° C.
# [5] = FaSSIF (ph 6.5), t = 1 h@37° C.
# [6] = FaSSIF (ph 6.5), t = 3 h@37° C.
# [7] = FaSSIF (ph 6.5), t = 6 h@37° C.
# [8] = FaSSIF (ph 6.5), t = 24 h @37° C.
# [9] = FeSSIF (ph 5.0), t = 1 h@37° C.
# [10] = FeSSIF (ph 5.0), t = 3 h@37° C.
# [11] = FeSSIF (ph 5.0), t = 6 h@37° C.
# [12] = FeSSIF (ph 5.0), t = 24 h @37° C.
structure (smiles),measurement,setting,value
COc1ccc2c(ccn2C[C@@H](C)N(C)C)c1.Cl [Compound 1 · HCl],Solubility,[1],>30 mg/mL
same,Solubility,[2],>30 mg/mL
same,Solubility,[3],>30 mg/mL
same,Solubility,[4],>30 mg/mL
same,Solubility,[5],>30 mg/mL
same,Solubility,[6],>30 mg/mL
same,Solubility,[7],>30 mg/mL
same,Solubility,[8],>30 mg/mL
same,Solubility,[9],>30 mg/mL
same,Solubility,[10],>30 mg/mL
same,Solubility,[11],>30 mg/mL
same,Solubility,[12],>30 mg/mL
COc1ccc2c(ccn2C[C@@H](C)N(C)C)c1.O=C(O)/C=C\C(=O)O [Compound 1 · Maleate],Solubility,[1],>30 mg/mL
same,Solubility,[2],>30 mg/mL
same,Solubility,[3],>30 mg/mL
same,Solubility,[4],>30 mg/mL
same,Solubility,[5],>30 mg/mL
same,Solubility,[6],>30 mg/mL
same,Solubility,[7],>30 mg/mL
same,Solubility,[8],>30 mg/mL
same,Solubility,[9],>30 mg/mL
same,Solubility,[10],>30 mg/mL
same,Solubility,[11],>30 mg/mL
same,Solubility,[12],>30 mg/mL
COc1ccc2c(ccn2C[C@@H](C)N(C)C)c1.O=C(O)c1ccccc1 [Compound 1 · Benzoate],Solubility,[1],28.74 mg/mL
same,Solubility,[2],26.85 mg/mL
same,Solubility,[3],26.33 mg/mL
same,Solubility,[4],25.59 mg/mL
same,Solubility,[5],>30 mg/mL
same,Solubility,[6],>30 mg/mL
same,Solubility,[7],>30 mg/mL
same,Solubility,[8],>30 mg/mL
same,Solubility,[9],>30 mg/mL
same,Solubility,[10],>30 mg/mL
same,Solubility,[11],>30 mg/mL
same,Solubility,[12],>30 mg/mL
same,XRPD (dried),[1],Benzoic acid
same,XRPD (wet),[1],Benzoic acid
same,XRPD (dried),[2],Benzoic acid
same,XRPD (wet),[2],Benzoic acid
same,XRPD (dried),[3],Benzoic
same,XRPD (wet),[3],Benzoic acid
same,XRPD (dried),[4],Benzoic
same,XRPD (wet),[4],Benzoic
COc1ccc2c(ccn2C[C@@H](C)N(C)C)c1.O=C(O)c1ccccc1 [Compound 1.Benzoate],HPLC peak RRT 1.00 (Compound 1),input salt before FaSSGF,99.64
same,HPLC peak RRT 1.09,input salt before FaSSGF,0.03
same,HPLC peak RRT 1.17,input salt before FaSSGF,0.03
same,HPLC peak RRT 1.18,input salt before FaSSGF,0.10
same,HPLC peak RRT 1.19,input salt before FaSSGF,0.02
same,HPLC peak RRT 1.24,input salt before FaSSGF,0.06
same,HPLC peak RRT 1.28,input salt before FaSSGF,0.01
same,HPLC peak RRT 1.33,input salt before FaSSGF,0.10
same,HPLC peak RRT 0.90,t = 1 h in FaSSGF,0.07
same,HPLC peak RRT 0.92,t = 1 h in FaSSGF,0.05
same,HPLC peak RRT 1.00 (Compound 1),t = 1 h in FaSSGF,99.28
same,HPLC peak RRT 1.07,t = 1 h in FaSSGF,0.04
same,HPLC peak RRT 1.09,t = 1 h in FaSSGF,0.06
same,HPLC peak RRT 1.17,t = 1 h in FaSSGF,0.04
same,HPLC peak RRT 1.19,t = 1 h in FaSSGF,0.15
same,HPLC peak RRT 1.27,t = 1 h in FaSSGF,0.11
same,HPLC peak RRT 1.28,t = 1 h in FaSSGF,0.05
same,HPLC peak RRT 1.33,t = 1 h in FaSSGF,0.15
same,HPLC peak RRT 0.97,t = 3 h in FaSSGF,0.04
same,HPLC peak RRT 1.00 (Compound 1),t = 3 h in FaSSGF,99.62
same,HPLC peak RRT 1.07,t = 3 h in FaSSGF,0.03
same,HPLC peak RRT 1.17,t = 3 h in FaSSGF,0.15
same,HPLC peak RRT 1.33,t = 3 h in FaSSGF,0.16
same,HPLC peak RRT 1.00 (Compound 1),t = 6 h in FaSSGF,99.61
same,HPLC peak RRT 1.17,t = 6 h in FaSSGF,0.12
same,HPLC peak RRT 1.24,t = 6 h in FaSSGF,0.08
same,HPLC peak RRT 1.25,t = 6 h in FaSSGF,0.04
same,HPLC peak RRT 1.32,t = 6 h in FaSSGF,0.06
same,HPLC peak RRT 1.33,t = 6 h in FaSSGF,0.09
same,HPLC peak RRT 1.00 (Compound 1),t = 24 h in FaSSGF,99.73
same,HPLC peak RRT 1.17,t = 24 h in FaSSGF,0.15
same,HPLC peak RRT 1.32,t = 24 h in FaSSGF,0.07
same,HPLC peak RRT 1.33,t = 24 h in FaSSGF,0.06
